In paper PMC2649372 (Biochemistry, 2008):
Residue numbers refer to the chain shown, from its start. Marks after values point to notes of the source that are not given here.

Key:
Test in all cases: Agonist-induced currents, voltage clamp electrophysiology in Xenopus oocytes
Assay type in all cases: cell-based
[1] = biological target: T1, N128Q mutant 5-HT3 receptor (mouse 5-HT3A subunit) (Mus musculus, UniProt P23979, N128Q); conditions: N128Q
T1 sequence (P23979 24-483 isoform P23979-2 N128Q limits assumed): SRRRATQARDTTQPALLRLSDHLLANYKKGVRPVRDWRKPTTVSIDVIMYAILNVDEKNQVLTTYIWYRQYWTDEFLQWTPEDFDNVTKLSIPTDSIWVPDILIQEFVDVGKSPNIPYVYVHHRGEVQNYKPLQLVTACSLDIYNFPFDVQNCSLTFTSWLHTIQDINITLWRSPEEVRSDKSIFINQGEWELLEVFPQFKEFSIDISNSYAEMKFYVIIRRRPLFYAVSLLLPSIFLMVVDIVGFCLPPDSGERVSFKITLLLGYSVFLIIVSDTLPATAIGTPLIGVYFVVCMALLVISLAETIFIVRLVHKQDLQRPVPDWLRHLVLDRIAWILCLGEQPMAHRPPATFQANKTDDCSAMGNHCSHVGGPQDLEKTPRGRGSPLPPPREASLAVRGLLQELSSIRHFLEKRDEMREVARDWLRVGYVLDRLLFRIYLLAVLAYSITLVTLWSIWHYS

[2] = biological target: T2, N128V mutant 5-HT3 receptor (mouse 5-HT3A subunit) (Mus musculus, UniProt P23979, N128V)
T2 sequence (P23979 24-483 isoform P23979-2 N128V limits assumed): T1 sequence (P23979 24-483 isoform P23979-2 N128Q limits assumed) with Q105V

[3] = biological target: T3, E129H mutant 5-HT3 receptor (mouse 5-HT3A subunit) (Mus musculus, UniProt P23979, E129H)
T3 sequence (P23979 24-483 isoform P23979-2 E129H limits assumed): T1 sequence (P23979 24-483 isoform P23979-2 N128Q limits assumed) with Q105N, E106H

[4] = biological target: T4, E129N mutant 5-HT3 receptor (mouse 5-HT3A subunit) (Mus musculus, UniProt P23979, E129N); conditions: E129N
T4 sequence (P23979 24-483 isoform P23979-2 E129N limits assumed): T1 sequence (P23979 24-483 isoform P23979-2 N128Q limits assumed) with Q105N, E106N

[5] = biological target: T5, N128K mutant 5-HT3 receptor (mouse 5-HT3A subunit) (Mus musculus, UniProt P23979, N128K)
T5 sequence (P23979 24-489 N128K): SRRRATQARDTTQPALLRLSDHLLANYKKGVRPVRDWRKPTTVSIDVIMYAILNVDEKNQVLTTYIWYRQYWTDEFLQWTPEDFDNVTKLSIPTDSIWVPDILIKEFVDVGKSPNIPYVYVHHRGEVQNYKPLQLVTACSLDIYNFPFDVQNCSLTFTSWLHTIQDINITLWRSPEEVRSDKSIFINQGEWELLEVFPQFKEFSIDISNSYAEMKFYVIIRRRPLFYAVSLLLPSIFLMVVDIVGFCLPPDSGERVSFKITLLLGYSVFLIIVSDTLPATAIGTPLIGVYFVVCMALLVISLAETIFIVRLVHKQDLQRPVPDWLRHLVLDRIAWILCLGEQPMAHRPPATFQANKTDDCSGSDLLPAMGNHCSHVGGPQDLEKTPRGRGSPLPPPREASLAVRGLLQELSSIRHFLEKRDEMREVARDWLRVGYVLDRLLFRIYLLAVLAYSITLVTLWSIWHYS

Row | EC50 [1] | pEC50 [1] | EC50 [2] | pEC50 [2] | EC50 [3] | pEC50 [3] | EC50 [4] | nH (Hill coefficient) [4] | pEC50 ([4]; SR = small (<100 nA) responses) | EC50 [5] | pEC50 [5] | SMILES | nH (Hill coefficient) [1] | nH (Hill coefficient) [2] | nH (Hill coefficient) [3] | size of agonist response (current) [4] | nH (Hill coefficient) [5]
1 |  |  |  |  |  |  |  |  |  |  |  | NCCc1c[nH]c2ccc(O)cc12 [5-HT, 5-hydroxytryptamine] | 2.11 ± 0.29 | 3.18 ± 0.60 | 1.07 ± 0.24 ^b | > 5 µA | 2.13 ± 0.38
2 | 3000 nM | 5.52 ± 0.18 ^b | 74 nM | 7.13 ± 0.02 ^b | 370 nM | 6.43 ± 0.04 | 620 nM | 1.25 ± 0.19 | 6.21 ± 0.05 | 3900 nM | 5.41 ± 0.03 ^b | N=C(N)NC(=N)Nc1cccc(Cl)c1 [mCPBG, m-chlorophenylbiguanide] | 2.41 ± 0.16 | 5.07 ± 0.85 ^b | 1.63 ± 0.20 | > 5 µA | 1.43 ± 0.16
